Source: patent US10478436B2, “Application of 5-HT6 receptor antagonists for the alleviation of cognitive deficits of down syndrome” (The University of Utah Research Foundation, priority 2011, dated 2019)
“Also recorded” adds a separate entry of the source.

Tests used:
Ts65Dn mice = assay: Exploratory paradigm: ability to recognize a novel object in a novel location (discrimination ratio), Ts65Dn Down syndrome mice; assay type: in vivo, mouse; conditions: for cognition (discrimination ratio) compared to treatment with vehicle alone: Ts65Dn mice; for cognition (discrimination ratio) compared to treatment with vehicle alone / cognitive performance (discrimination ratio) compared to no treatment / vehicle alone: 10 mg/kg i.p.; for cognitive performance (discrimination ratio) compared to no treatment / vehicle alone: 9-month-old Ts65Dn mice
Experimental: […] Animals were kept on a 12 hour light/dark cycle and experimentation was conducted during the light portion of the cycle. Animals had unlimited access to food and water. All animals used were housed individually to limit the interference of social interaction on cognitive test performance. Animal care and experimental testing procedures conformed to NIH, IACUC, and AALAC standards and protocols.
(§1) Ts65Dn are compared to their control littermates for the effects of excipients and compounds in altering the performance and rescue of deficits in the Ts65Dn DS mouse model.
The apparatus for these experiments consisted of a 40 cm×40 cm Plexiglas box with clear walls and a dark grey floor. The box was placed on a circular white table 1 m in diameter. Four distinct, approximately 20 cm×20 cm black and white shapes were placed 30 cm away from the midpoint of each side of the box. Objects were made from various washable, non-porous materials (plastic, metal, glass, etc.), 2-7 cm in height and varied in color, pattern and texture. To prevent odor cues, all apparatus and objects were disinfected and deodorized with HDQ after each use.
The experimental paradigms utilized the inherent tendency of rodents to differentially explore novel stimuli over familiar stimuli. Exploration was defined as any investigative behavior where mice have active and direct contact with an object. Such behaviors included head orientation and sniffing within <1.0 cm of the object, pawing, biting, or crawling over the objects. Exploration was recorded with an overhead video camera and the duration of exploration was measured with a stopwatch. The week prior to testing, all animals were handled in daily sessions and given an opportunity to habituate to the clear or red apparatus. Each experimental session presented the animal with new object sets and tests were separated by a minimum 48 hour interval. It should be noted that order effects are not normally observed in exploration tasks. Each test consisted of a Habituation Phase, during which mice display reduced exploration over time as a function of habituation, and a Test Phase on novelty detection that is interpreted to reflect recognition memory.
For each of the 7 compounds 1-7, the compound was administered to Ts65Dn mice via i.p. injection at a concentration of 3.0 mg/kg (compound 1) or 10 mg/kg (compounds 2, 3, 4, 5, 6, and 7) body weight delivered in a vehicle of methyl cellulose+0.2% tween 80 solution, while additional Ts65Dn mice were administered with vehicle alone. Each animal received a volume (ml) of drug in vehicle equal to 1% of its body weight (g) or an equal volume of vehicle alone. Forty minutes after the compound is injected, the Habituation phase begins. Therefore, the Test phase occurs 60 minutes after administration of the drug.
For each experiment the animal was placed in center of the clear acrylic box and presented with two different objects spaced 15 cm apart for 15 minutes of free explorations of the apparatus, stimulus objects, and distal environmental cues (Habituation Phase). After the Habituation Phase, a black container was placed over the mouse for a 5-minute Delay. During this delay, one object was exchanged with a new, unfamiliar object in a novel location (novel object), while the other object is replaced with an identical object in the same location (familiar object). Following the delay the black container was removed, beginning the Test Phase and the mouse is allowed to re-explore for 5 minutes (Test Phase).
The duration of exploration of the Novel and Familiar stimuli during the Test Phase was individually measured with stopwatches, rounding to the 0.5 second. […] A zero score would reflect no preference for either the novel or familiar object. A positive score reflects a preference for exploration of the novel object, and is associated with the animal's level of hippocampal function and memory or cognition. […]

[1] = Hirst et al. (2006); cited from earlier work
control mice = assay: Exploratory paradigm: ability to recognize a novel object in a novel location (discrimination ratio), control littermates; assay type: in vivo, mouse; conditions: 3.0 mg/kg i.p.
Experimental: Male Ts65Dn/DnJ mice and male littermates were obtained from a commercial supplier (Jackson Laboratory, Bar Harbor, Me.), and tested at approximately 12-32 weeks of age, at a weight of 25-30 grams. Animals were kept on a 12 hour light/dark cycle and experimentation was conducted during the light portion of the cycle. Animals had unlimited access to food and water. All animals used were housed individually to limit the interference of social interaction on cognitive test performance. Animal care and experimental testing procedures conformed to NIH, IACUC, and AALAC standards and protocols.
as §1
The apparatus for these experiments consisted of a 40 cm×40 cm Plexiglas box with clear walls and a dark grey floor. The box was placed on a circular white table 1 m in diameter. […]
The experimental paradigms utilized the inherent tendency of rodents to differentially explore novel stimuli over familiar stimuli. […] Exploration was recorded with an overhead video camera and the duration of exploration was measured with a stopwatch. […]
The duration of exploration of the Novel and Familiar stimuli during the Test Phase was individually measured with stopwatches, rounding to the 0.5 second. […]

[2] = tested on: scopolamine-induced memory deficits; conditions: Mitchell and Neumaier (2008); cited from earlier work
[3] = target: human recombinant and native 5-HT6 receptors (Homo sapiens, UniProt P50406); conditions: cited from earlier work
human recombinant and native 5-HT6 receptors, sequence (P50406 whole entry): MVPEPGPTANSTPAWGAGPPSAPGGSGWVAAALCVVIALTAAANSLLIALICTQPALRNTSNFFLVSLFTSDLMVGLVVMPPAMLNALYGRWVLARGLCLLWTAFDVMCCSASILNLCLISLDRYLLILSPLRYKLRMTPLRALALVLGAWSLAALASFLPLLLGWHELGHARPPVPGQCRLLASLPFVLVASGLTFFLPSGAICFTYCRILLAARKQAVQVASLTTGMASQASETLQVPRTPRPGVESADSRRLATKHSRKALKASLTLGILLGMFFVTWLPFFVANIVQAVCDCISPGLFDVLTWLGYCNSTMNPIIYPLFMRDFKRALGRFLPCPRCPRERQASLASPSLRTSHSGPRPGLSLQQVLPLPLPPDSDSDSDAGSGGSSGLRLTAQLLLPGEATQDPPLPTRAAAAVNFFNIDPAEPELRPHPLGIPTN

rat 5-HT6 receptor = rat 5-HT6 receptor (Rattus norvegicus, UniProt P31388); conditions: cited from earlier work
rat 5-HT6 receptor, sequence (P31388 whole entry): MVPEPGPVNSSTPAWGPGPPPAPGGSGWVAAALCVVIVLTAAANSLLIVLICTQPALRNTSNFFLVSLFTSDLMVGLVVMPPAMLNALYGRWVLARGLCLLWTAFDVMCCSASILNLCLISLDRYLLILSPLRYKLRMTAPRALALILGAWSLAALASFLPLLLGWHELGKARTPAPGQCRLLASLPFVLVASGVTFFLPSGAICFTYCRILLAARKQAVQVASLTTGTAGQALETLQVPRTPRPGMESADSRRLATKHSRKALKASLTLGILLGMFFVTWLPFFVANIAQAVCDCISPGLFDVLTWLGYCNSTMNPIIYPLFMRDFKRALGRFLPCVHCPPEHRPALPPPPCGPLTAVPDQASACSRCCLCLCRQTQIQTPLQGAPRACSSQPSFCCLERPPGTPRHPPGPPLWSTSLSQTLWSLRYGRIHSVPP

mouse 5-HT6 receptor = mouse 5-HT6 receptor (Mus musculus, UniProt Q9R1C8); conditions: cited from earlier work
mouse 5-HT6 receptor, sequence (Q9R1C8 whole entry): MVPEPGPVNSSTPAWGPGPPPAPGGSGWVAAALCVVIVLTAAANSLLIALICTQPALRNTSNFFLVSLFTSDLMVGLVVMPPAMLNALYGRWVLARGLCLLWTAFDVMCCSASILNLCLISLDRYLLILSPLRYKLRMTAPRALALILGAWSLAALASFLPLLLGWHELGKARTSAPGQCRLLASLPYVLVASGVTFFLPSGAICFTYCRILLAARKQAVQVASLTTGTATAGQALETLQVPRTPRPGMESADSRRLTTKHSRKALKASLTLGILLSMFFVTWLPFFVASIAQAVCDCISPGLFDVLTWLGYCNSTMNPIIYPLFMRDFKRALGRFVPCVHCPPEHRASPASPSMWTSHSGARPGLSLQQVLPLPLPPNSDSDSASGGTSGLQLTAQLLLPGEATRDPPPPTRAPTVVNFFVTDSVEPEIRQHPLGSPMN

5-HT6 receptor [4] = target: T1, 5-HT6 receptor (Homo sapiens, UniProt P50406); conditions: Arnt et al. (2010); cited from earlier work
T1 sequence (P50406 whole entry): as the sequence (P50406 whole entry) above

5-HT6 receptor [5] = target: T1, 5-HT6 receptor; conditions: cited from earlier work
18 other receptors = conditions: concentration of 10 μM; cited from earlier work
[6] = Test phase 60 minutes after administration

Q: For COc1ccc(S(=O)(=O)Nc2cc(Cl)cc(Cl)c2OC)cc1N1CCNCC1 [compound 1, N-(3,5-dichloro-2-methoxyphenyl)-4-methoxy-3-(piperazin-1-yl)benzenesulfonamide], which “mean discrimination ratio compared to no treatment or treatment with vehicle alone” value (Ts65Dn mice; 3 to 4 month-old Ts65Dn mice, 3.0 mg/kg i.p., Test phase 60 minutes after administration) is on record?
A: The value was “significant increase”.

Q: What about the “discrimination ratio compared to no treatment or treatment with vehicle alone” value (Ts65Dn mice; 8-month-old Ts65Dn mice, 3.0 mg/kg i.p.) of the same molecule?
A: The value was “significantly increased”.

Q: And the “persistence of the treatment effect on mean discrimination ratio” value (Ts65Dn mice; 8-month-old Ts65Dn mice, tested two weeks after the treatment experiments)?
A: The value was “did not last”.

Q: What about the brain penetration [1] of the same molecule?
A: The brain penetration was “brain penetrant”.

Q: What about the oral activity [1] of the same molecule?
A: Its oral activity is “orally active”.

Q: And the “mean discrimination ratio, compound+vehicle vs. vehicle alone” value (control mice)?
A: The value was “did not respond differently”.

Q: With COc1ccc2[nH]c(-c3ccccc3)c(CCN(C)C)c2c1 [compound 2, 2-(5-methoxy-2-phenyl-1H-indol-3-yl)-N,N-dimethylethanamine] as the molecule, how does the “cognition (discrimination ratio) compared to treatment with vehicle alone” value (“cognition (discrimination ratio)” for short) (Ts65Dn mice; [6]) read?
A: Its value is “significantly improves”.

Q: And the “effect on scopolamine-induced memory deficits” value [2]?
A: Its value is “reverse”.

Q: For O=S(=O)(c1cccc2ccccc12)n1ccc2ccc(N3CCN4CCCC4C3)cc21 (stereo not shown) [compound 3, 2-(1-(naphthalen-1-ylsulfonyl)-1H-indol-6-yl)octahydropyrrolo[1,2-a]pyrazine], which “cognition (discrimination ratio)” value (Ts65Dn mice; [6]) is on record?
A: Its value is “significantly increased”.

Q: With CN1CCC(c2cn(C)c3ccc(OS(=O)(=O)c4c(F)cccc4F)cc23)CC1 [compound 4, 1-methyl-3-(1-methylpiperidin-4-yl)-1H-indol-5-yl 2,6-difluorobenzenesulfonate] as the molecule, how does the “cognition (discrimination ratio)” value (Ts65Dn mice; [6]) read?
A: The value was “trend to increased discrimination ratios”.

Q: What does the source list for CNc1cc(NS(=O)(=O)c2ccc(N)cc2)nc(NC)n1 [compound 5, 4-amino-N-(2,6-bis(methylamino)pyrimidin-4-yl)benzenesulfonamide]?
A: cognition (discrimination ratio) compared to treatment with vehicle alone (Ts65Dn mice; Test phase 60 minutes after administration, 10 mg/kg): does not restore cognition; also recorded: does not improve cognition; also recorded: lack of response; also recorded: did not alter the cognitive abilities; binding to the human 5-HT6 receptor [3]: binds the human; recognition of the rat 5-HT6 receptor (rat 5-HT6 receptor): recognizes the rat; binding to the mouse 5-HT6 receptor (mouse 5-HT6 receptor): does not bind; also recorded: does not recognize

Q: With Fc1ccc2c(CCNCc3cccc(OCC(F)(F)C(F)F)c3)c[nH]c2c1 [compound 6, 2-(6-fluoro-1H-indol-3-yl)-N-(3-(2,2,3,3-tetrafluoropropoxyl)benzyl)ethanamine] as the molecule, how does the “cognitive performance (discrimination ratio) compared to no treatment / vehicle alone” value (Ts65Dn mice) read?
A: Its value is “significant increase”.

Q: What about the “5-HT6 receptor agonist activity” value (5-HT6 receptor [4]) of the same molecule?
A: The value was “no agonist activity”.

Q: For O=S(=O)(c1ccccc1)c1cnc2c(N3CCNCC3)cccc2c1 [compound 7, 3-(phenylsulfonyl)-8-(piperazin-1-yl)quinoline], which “cognitive performance (discrimination ratio) compared to no treatment / vehicle alone” value (Ts65Dn mice) is on record?
A: Its value is “significantly improves”.

Q: What does the source list for Cc1ccc2c(c1)c1c(n2CCc2ccc(C)nc2)CCN(C)C1 [dimebolin]?
A: ability to bind as 5-HT6 receptor antagonist (5-HT6 receptor [5]): approximately 20 times weaker; inhibition of 18 other receptors (18 other receptors): 50%
